# Entries after “also recorded” stand apart in the source; their conditions may differ.
# How the values were obtained:
# SGK1 pS422 = experiment: HM (pS422) phosphorylation of flag-tagged SGK1 in HEK293 cells; type: cell-based, Human; details: insulin, FIG. 28C
# p70S6K phosphorylation = p70S6K phosphorylation in mpkCCD cells; type: cell-based
# [1] = test system: Akt, S6, 4EBP1 phosphorylation in tissues; experiment: In vivo effect on insulin signaling in fat, skeletal muscle and liver of mice; set-up: species or system C57BL/6 mice
# [2] = Metabolic stability in microsome and cellular assays; type: in vitro ADME
# [3] = test system: myristolated-Akt transgenic thymocytes tumors; experiment: Akt murine allograft tumor model; type: in vivo, NOD/SCID mice
# [4] = Pharmacokinetics of PP242; details: in vivo
# [5] = test system: Akt-S473 and S6 phosphorylation in T cells; experiment: Phosflow of anti-CD3 stimulated murine splenocytes; type: cell-based
# [6] = test system: Akt substrates (GSK3, TSC2, FoxO1/O3a) in L6 myotubes; experiment: Phosphorylation of Akt substrates in insulin stimulated L6 myotubes; type: cell-based; details: FIG. 6
# [7] = test system: mTORC2/AKT and mTORC1 signaling; experiment: mTORC2/AKT and mTORC1 signaling in p190 cells (western blot); type: cell-based; details: FIGS. 38A-38B
# Protocol: Western blots of p190 cells treated for 1.5 hr (a) or 3 hr (b) with indicated inhibitors are depicted in FIG. 38A and FIG. 38B. […] Clinically achievable concentrations of IM (1.0 μM) and DA (100 nM) were used for the combination treatments. See also FIGS. 40A-40B. Activation of PI3K was quantified in cells by signal pixel intensity and localized area of PIP3 accumulation by confocal microscopy, as depicted in FIG. 38C. […] A minimum of 250 cells was quantified from 2 separate images. […] Representative images depict PIP3 accumulation, nuclear content (DAPI stain) merged onto DIC images (13.5 μm scale bar). […] Autophagy (LC3 puncta accumulation), loss of proliferation (EdU accumulation), and distinct localization patterns of Foxo1 were assessed by confocal microscopy and representative cells were magnified for clarity. Cytoplasmic localization of Foxo1 corresponds to AKT activation, whereas nuclear accumulation signifies AKT inhibition.
# [8] = test system: S6K, S6, 4EBP1 phosphorylation in L6 myotubes; experiment: Phosphorylation of S6K, S6 and 4EBP1 in insulin stimulated L6 myotubes; type: cell-based
# [9] = test system: p70S6K, 4EBP1 phosphorylation in MEFs; experiment: Phosphorylation of 70S6K and 4EBP1 in mouse embryonic fibroblasts; type: cell-based; details: wild-type and SIN1−/− MEFs; FIG. 11
# Protocol: Wild-type and SIN1−/− primary mouse embryonic fibroblasts (MEFs) were grown in DMEM supplemented with about 10% FBS, glutamine and penicillin/streptomycin. MEFs were treated with TORKinib at approximately 2.5, 0.63, and 0.16 uM; rapamycin at about 15 nM; or PIK-90 at about 625 nM for approximately 30 minutes prior to insulin stimulation (e.g. 100 nM) for about 10 minutes. Cells were lysed by scraping into ice cold lysis buffer (generally: 300 mM NaCl, 50 mM Tris pH 7.5, 5 mM EDTA, 1% TRITON™ X-100, 0.02% NaN3, 20 nM microcystin, Sigma phosphatase inhibitor cocktails 1 and 2, Roche protease inhibitor cocktail and 2 mM PMSF). After contacting cells with lysis buffer, the solution was briefly sonicated. Lysates were cleared by centrifugation, resolved by SDS-PAGE, transferred to nitrocellulose and immunoblotted using antibodies to phospho-p70S6K T389, phospho-4EBP1 T37/46, phospho-4EBP1 S65, and β-actin (Cell Signaling Technologies).
# [10] = test system: PI3K signaling (PIP3 accumulation); experiment: PIP3 accumulation in p190 cells by confocal microscopy; type: cell-based; details: 20 and 200 nM, 4 hr; FIG. 38C
# Tolerability in mice = type: in vivo; details: 10, 30 or 100 mg/kg, four times or twice daily, p.o.
# [11] = test system: ENaC-dependent Na+ current
# [12] = test system: Akt phosphorylation (S473, T308) in L6 myotubes; experiment: Akt phosphorylation in insulin stimulated L6 myotubes (immunoblot); type: cell-based; details: 100 nM insulin, FIG. 3
# Protocol: L6 myoblasts were grown typically grown in DMEM supplemented with about 10% FBS, glutamine and penicillin/streptomycin. Confluent L6 myoblasts were differentiated into mytubes by culturing them for approximately 5 days in media containing about 2% FBS. L6 myotubes were maintained in media containing approximately 2% FBS until use.
# In order to compare the effect of TORKinibs and PIK-90 on Akt phosphorylation, L6 myotubes were serum starved overnight and incubated with inhibitors or about 0.1% DMSO for approximately 30 minutes prior to stimulation with insulin (e.g. 100 nM) for about 10 minutes. Cells were lysed by scraping into ice cold lysis buffer (generally: 300 mM NaCl, 50 mM Tris pH 7.5, 5 mM EDTA, 1% TRITON™ X-100, 0.02% NaN3, 20 nM microcystin, Sigma phosphatase inhibitor cocktails 1 and 2, Roche protease inhibitor cocktail and 2 mM PMSF). After contacting cells with lysis buffer, the solution was briefly sonicated. Lysates were cleared by centrifugation, resolved by SDS-PAGE, transferred to nitrocellulose and immunoblotted using antibodies to phospho-Akt S473, phospho-Akt T308, Akt, and β-actin (Cell Signaling Technologies).
# [13] = test system: Akt phosphorylation (S473, T308) in MEFs; experiment: Akt phosphorylation in wild-type and SIN1−/− mouse embryonic fibroblasts (immunoblot); type: cell-based
# Protocol: Wild-type and SIN1−/− primary mouse embryonic fibroblasts (MEFs) were grown in DMEM supplemented with about 10% FBS, glutamine and penicillin/streptomycin. MEFs were treated with TORKinib at about 2.5, 0.63, and 0.16 uM; rapamycin at approximately 15 nM; or PIK-90 at 625 nM for 30 minutes prior to insulin stimulation (e.g. 100 nM) for 10 minutes. Cells were lysed by scraping into ice cold lysis buffer (typically 300 mM NaCl, 50 mM Tris pH 7.5, 5 mM EDTA, 1% TRITON™ X-100, 0.02% NaN3, 20 nM microcystin, Sigma phosphatase inhibitor cocktails 1 and 2, Roche protease inhibitor cocktail and 2 mM PMSF). After contacting cells with lysis buffer, the solution was briefly sonicated. Lysates were cleared by centrifugation, resolved by SDS-PAGE, transferred to nitrocellulose and immunoblotted using antibodies to phospho-Akt S473, phospho-Akt T308, Akt, and β-actin (Cell Signaling Technologies).
# [14] = test system: cap-dependent translation; experiment: Cap-dependent translation, m7GTP affinity, p190 cells; type: cell-based; details: IM at 5 μM; FIG. 38D
# SGK1 phosphorylation = SGK1 phosphorylation in mpkCCD cells (mobility shift immunoblot); type: cell-based; details: at a concentration of 0.3 μM
# [15] = Genetic toxicology (mini-Ames test)
# 4EBP1 binding to eIF-4E = experiment: m7GTP cap pull-down assay in L6 myotubes; type: cell-based; details: insulin stimulated L6 myotubes; FIG. 10
# [16] = test system: ENaC-dependent Na+ current; experiment: ENaC-dependent Na+ transport in mpkCCD cells
# Tolerability in rats = type: in vivo; details: 10, 30 or 100 mg/kg, four times or twice daily, p.o.
smiles,measurement,setting,value
CC(C)n1nc(-c2cc3cc(O)ccc3[nH]2)c2c(N)ncnc21 [PP242],pS422-SGK1 band,SGK1 pS422,abrogated
same,p70S6K phosphorylation,p70S6K phosphorylation,eliminated the band detected by anti-phospho p70S6K antibody
same,S6 phosphorylation,[1]; all tissues examined,equally inhibited
same,phosphorylation of 4EBP1 on T37/46 and S65,[1]; all tissues examined,effective at blocking
same,phosphorylation of Akt at S473 and T308,"[1]; fat and liver, i.p., insulin stimulated mice",completely inhibit
same,phosphorylation of Akt,[1]; skeletal muscle,only partially able to inhibit
same,metabolic stability,[2],metabolically stable
same,tumor growth,"[3]; PP242 100 mg/kg, rapamycin 5 mg/kg, gavage daily, 20 days",no tumor growth
same,body weight,[3]; after 20 days of treatment,maintained body weight
same,clearance,[4],moderate
same,volume of distribution,[4],good
same,oral bioavailability (F %),[4]; po,30-70%
same,anti-CD3 mediated phosphorylation of Akt-S473,[5],inhibits
same,anti-CD3 mediated phosphorylation of S6,[5],inhibits
same,phosphorylation of Akt and its substrates,[6],partially inhibited
same,mTORC2/AKT and mTORC1 signaling in B-ALL,[7],completely inhibits mTORC2/AKT and mTORC1 signaling
same,phosphorylation of 4EBP1 at S65,[8],fully inhibits
same,phosphorylation of 4EBP1 at T70,[8],neither rapamycin nor TORKinib affect
same,phosphorylation of 4EBP1 at T37/46,[8]; listed as TORKinib,fully inhibits; also recorded: able to inhibit
same,phosphorylation of p70S6K and 4EBP1,[9],more complete inhibitor of 4EBP1 phosphorylation under the conditions tested than rapamycin
same,PI3K signaling (PIP3 accumulation),[10],had no significant effect
same,tolerability,Tolerability in mice,tolerated
same,toxic effect of prolonged treatment,[11],diminishes electrical resistance and causes morphological changes
same,insulin stimulated phosphorylation of Akt at S473 and T308,[12],inhibit insulin stimulated phosphorylation of Akt at S473
same,phosphorylation of Akt T308,[13]; SIN1−/− MEFs,has no effect
same,phosphorylation of Akt at S473 and T308,[13]; wild-type MEFs,inhibits the phosphorylation of Akt at both S473 and T308
same,cap-dependent translation,[14],inhibit cap-dependent translation
same,phosphorylation of SGK1,SGK1 phosphorylation,completely abolished
same,genetic toxicology (mini-Ames test),[15],clean profile
same,retention of 4EBP1 on eIF-4E (m7GTP pull-down),4EBP1 binding to eIF-4E,caused a greater retention of 4EBP1
same,T1/2 of effect on Na+ current,[16]; FIG. 29B,approximately 15 minutes
same,amiloride-sensitive Na+ current,[16]; at a concentration of 0.3 μM,completely abolished
same,aldosterone-induced Na+ current,[16]; mpkCCD cells,completely blocked aldosterone-induced current
same,tolerability,Tolerability in rats,tolerated

# Source: patent US9629843B2, “MTOR modulators and uses thereof” (The Regents of the University of California, priority 2008, dated 2017)
